This is an account of results in US20100048604A1, “Ligands for Aldoketoreductases” (priority 2004, published 2010).

This assay deals with T1, AKR1C3 (Homo sapiens, UniProt P42330).
T1 construct: gift of Professor Trevor Penning (University of Pennsylvania School of Medicine)
T1 sequence (P42330 1-323): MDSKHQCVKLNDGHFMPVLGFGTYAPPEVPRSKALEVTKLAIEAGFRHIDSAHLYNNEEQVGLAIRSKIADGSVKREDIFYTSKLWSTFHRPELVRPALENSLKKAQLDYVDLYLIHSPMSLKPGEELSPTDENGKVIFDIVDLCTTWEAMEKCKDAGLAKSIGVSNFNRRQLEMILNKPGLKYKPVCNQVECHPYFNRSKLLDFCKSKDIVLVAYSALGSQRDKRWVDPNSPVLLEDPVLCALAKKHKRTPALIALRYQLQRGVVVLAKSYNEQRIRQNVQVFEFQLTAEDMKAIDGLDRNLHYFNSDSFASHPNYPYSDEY
As to the kind of experiment: Determination of kinetic parameters for AKR1C3 (fluorogenic substrate 5). It is filed as biochemical. As for the experimental part: Whether the activity of human enzymes may be imaged by probe 5 was investigated. Type 2 isozyme of 3α-HSD (AKR 1C3) was selected for this study owing to its important physiological role.
Fluorogenic substrate 5 reduction was monitored on a Hitachi F-4500 fluorimeter in Starna quartz cuvettes fluorometrically in 1 mL systems containing 100 mM potassium phosphate pH 6.0 containing excess of NADPH cofactor (250 μM) and various amounts of the substrate (0.1953-50 μM) dissolved in 4% acetonitrile. […] Cuvettes were mixed thoroughly after addition of cofactor, cosolvent, and substrate. Reactions were initiated by the addition of 4 μL of dilute AKR1C3 (115 μg/mL) and were corrected for nonenzymatic rates. All reactions were followed by monitoring the increase in fluorescence of the product alcohol for 5 minutes at λem 510 nm with λex 440 nm (Excitation and emission band pass slits both at 2.5 nm, lamp 900 V) at 37° C. The initial velocities, expressed in units of nanomoles per minute, were calculated according to previously published procedures (Wierzchowski, J.; Dafeldecker, W. P.; Holmquist, B.; Vallee, B. L. Anal. Biochem. 1989, 178, 57-62): initial rate=[nst×(Ft−F0)/(Fst)]/t where Ft and F0 represent the fluorescence at time t and 0, nst is the nanomoles of the product standard, and Fst is the fluorescence resulting from nst of product. Kinetic constants were approximated using the GraFit (Erithacus Software, Surrey, UK) non-linear regression analysis program to fit the untransformed data to a hyperbolic function as originally described (Wilkinson, G. N. Biochem. J. 1961, 80, 324-332), yielding estimated values of kcat, Km, and their associated standard errors.

Setting [1] is: 100 mM potassium phosphate pH 6.0, 250 μM NADPH, 37° C.
Where [2] appears, read: Type 2 isozyme of 3α-HSD (AKR 1C3).

Regarding `CC(=O)c1cc(=O)oc2c3c4c(cc12)CCCN4CCC3` [compound 5, 8-Acetyl-2,3,5,6-tetrahydro-1H,4H-11-oxa-3a-aza-benzo[de]anthracen-10-one], under setting [1], the Kcat was 0.1374 s⁻¹, the Km is 2.46 µM, the Spec. activity is 0.226 µmol/min/mg and the Vmax was 0.1039 nmol/min. Under setting [2], the Kcat stood at 0.137 s⁻¹ and the Km came to 2.5 µM.

By Km is commonly meant the substrate concentration at which the rate is half of its maximum. A word on the Vmax: it is the top rate of the reaction or transport when substrate is in excess.
